From ChEMBL document CHEMBL1132669, “New generation dopaminergic agents. 7. Heterocyclic bioisosteres that exploit the 3-OH-phenoxyethylamine D2 template” (Bioorg Med Chem Lett, 1999)
Calls of active or inactive are those of the source. The rule behind the calls is not given here.

How the values were obtained:
[1] = target: D(2) dopamine receptor (Rattus norvegicus) (UniProt P61169); assay: Relative binding affinity for low and hugh affinity type dopamine D2 receptors in rat striatal membranes; type: cell membranes; conditions: Striatum, Membrane
[2] = test system: Mus musculus; assay: In vivo inhibitory activity against spontaneous locomotory activity in mice administered subcutaneously; type: functional; conditions: sc
[3] = target: T1, D(2) dopamine receptor (Rattus norvegicus, UniProt P61169); assay: Inhibition of [3H]quinpirole binding to rat striatal membrane Dopamine receptor D2 without GTP and sodium
[4] = target: T2, D(4) dopamine receptor (Homo sapiens, UniProt P21917); assay: Inhibition of [3H]spiperone binding to human Dopamine receptor D4.4 expressed in CHO cell membranes
T2 sequence (P21917 whole entry): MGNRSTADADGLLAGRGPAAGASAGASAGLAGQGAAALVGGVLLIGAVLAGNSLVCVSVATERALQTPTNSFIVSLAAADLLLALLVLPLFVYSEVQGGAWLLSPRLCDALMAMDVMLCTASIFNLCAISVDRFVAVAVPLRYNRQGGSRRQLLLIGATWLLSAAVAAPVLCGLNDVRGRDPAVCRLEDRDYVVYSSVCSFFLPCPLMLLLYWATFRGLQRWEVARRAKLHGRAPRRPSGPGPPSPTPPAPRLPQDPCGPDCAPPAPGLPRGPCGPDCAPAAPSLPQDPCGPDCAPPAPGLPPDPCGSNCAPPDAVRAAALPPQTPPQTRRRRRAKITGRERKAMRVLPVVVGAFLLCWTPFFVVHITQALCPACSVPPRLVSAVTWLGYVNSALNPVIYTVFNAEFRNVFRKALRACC

[5] = target: T1, D(2) dopamine receptor; assay: Inhibition of [3H]spiperone binding to rat striatal membrane Dopamine receptor D2 low affinity without GTP and sodium
[6] = target: D(2) dopamine receptor (Homo sapiens, UniProt P14416); assay: Inhibition of [3H]spiperone binding to human Dopamine receptor D2 in CHO cell membranes
[7] = target: D(3) dopamine receptor (Homo sapiens, UniProt P35462); assay: Inhibition of [3H]spiperone binding to human Dopamine receptor D3 in CHO cell membranes
[8] = test system: Mus musculus; assay: Inhibitory activity against apomorphine-induced climbing in mice administered subcutaneously at 3 mg/kg; NS is not significant; type: functional, organism-based; parameters: dose 3 mg/kg
[9] = test system: Mus musculus; assay: Inhibitory activity against Sterotypy in mice administered subcutaneously at 3 mg/kg; NS is not significant; type: functional, organism-based; parameters: dose 3 mg/kg
[10] = test system: Mus musculus; assay: Inhibitory activity against apomorphine-induced climbing in mice administered subcutaneously; type: functional; conditions: sc
[11] = test system: Mus musculus; assay: Inhibitory activity against Sterotypy in mice administered subcutaneously; type: functional; conditions: sc

T1 sequence (P61169 whole entry): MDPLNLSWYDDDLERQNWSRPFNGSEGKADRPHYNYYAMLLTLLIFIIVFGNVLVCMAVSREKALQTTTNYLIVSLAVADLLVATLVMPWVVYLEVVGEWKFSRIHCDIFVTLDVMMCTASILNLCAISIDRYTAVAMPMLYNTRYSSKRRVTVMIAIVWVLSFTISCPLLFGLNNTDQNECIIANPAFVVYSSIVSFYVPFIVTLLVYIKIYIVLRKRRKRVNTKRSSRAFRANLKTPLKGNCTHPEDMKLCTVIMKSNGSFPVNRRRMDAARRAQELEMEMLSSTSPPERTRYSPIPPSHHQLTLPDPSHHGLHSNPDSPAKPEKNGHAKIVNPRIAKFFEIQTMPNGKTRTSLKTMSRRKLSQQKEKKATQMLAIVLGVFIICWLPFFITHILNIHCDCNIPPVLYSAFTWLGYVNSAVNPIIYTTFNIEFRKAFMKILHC
D(2) dopamine receptor (Rattus norvegicus), sequence (P61169 whole entry): as above
D(3) dopamine receptor, sequence (P35462 whole entry): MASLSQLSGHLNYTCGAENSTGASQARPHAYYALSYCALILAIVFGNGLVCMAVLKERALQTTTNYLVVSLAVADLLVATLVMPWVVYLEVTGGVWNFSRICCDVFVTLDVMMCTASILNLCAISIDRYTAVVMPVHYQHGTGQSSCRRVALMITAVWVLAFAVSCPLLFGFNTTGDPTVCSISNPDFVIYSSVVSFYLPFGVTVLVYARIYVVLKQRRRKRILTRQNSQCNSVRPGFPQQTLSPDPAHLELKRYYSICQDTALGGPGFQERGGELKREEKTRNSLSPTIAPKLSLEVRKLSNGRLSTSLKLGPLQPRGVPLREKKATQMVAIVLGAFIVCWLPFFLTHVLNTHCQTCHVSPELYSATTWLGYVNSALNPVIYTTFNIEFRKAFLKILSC
D(2) dopamine receptor (Homo sapiens, UniProt P14416), sequence (P14416 whole entry): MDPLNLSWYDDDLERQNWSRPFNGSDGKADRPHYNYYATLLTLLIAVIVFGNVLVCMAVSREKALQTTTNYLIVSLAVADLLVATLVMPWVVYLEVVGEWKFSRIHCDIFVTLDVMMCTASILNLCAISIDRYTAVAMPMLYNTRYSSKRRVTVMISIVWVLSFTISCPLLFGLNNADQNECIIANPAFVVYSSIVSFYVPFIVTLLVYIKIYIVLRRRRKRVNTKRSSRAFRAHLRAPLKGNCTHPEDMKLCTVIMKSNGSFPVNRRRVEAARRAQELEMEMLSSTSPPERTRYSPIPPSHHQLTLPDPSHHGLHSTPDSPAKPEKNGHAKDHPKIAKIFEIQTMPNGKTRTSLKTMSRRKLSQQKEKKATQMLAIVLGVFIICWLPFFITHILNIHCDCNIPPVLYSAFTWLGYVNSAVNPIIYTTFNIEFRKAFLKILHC

Row | SMILES | Ratio [1] | ED50 [2] | Ki [3] | Ki [4] | Ki [5] | Ki [6] | Ki [7] | ED50 [8] | ED50 [9] | ED50 [10] | ED50 [11]
1 | Oc1cccc(OCCNCc2ccccc2)c1 | 28 |  |  |  |  |  |  |  |  |  | 
2 | FC(F)(F)c1nc2c(OCCNCc3ccccc3)cc(Cl)cc2[nH]1 | 16 | 0.35 mg/kg | 0.71 nM | 7 nM | 11.6 nM | 32.4 nM | 41.8 nM | inactive | inactive |  | 
3 | O=c1[nH]c2cc(Cl)cc(OCCNCc3ccccc3)c2[nH]1 |  |  | 0.25 nM | 15.8 nM | 2.7 nM | 2.6 nM | 7.4 nM |  |  |  | 
4 | c1ccc(CNCCOc2cccc3nc[nH]c23)cc1 |  |  | 9.8 nM | 51.6 nM | 128 nM | 85.6 nM | 67.2 nM |  |  |  | 
5 | Sc1nc2c(OCCNCc3ccccc3)cccc2[nH]1 | 14 |  |  |  |  |  |  |  |  |  | 
6 | c1ccc(CNCCOc2cccc3[nH]ccc23)cc1 | 4 |  |  | 230 nM |  | 81.8 nM | 19.5 nM |  |  |  | 
7 | c1ccc(CNCCOc2cccc3[nH]ncc23)cc1 | 33 |  | 1.1 nM | 315 nM | 35.9 nM | 79.8 nM | 8.8 nM |  |  |  | 
8 | Oc1nc2c(OCCNCc3ccccc3)cc(Cl)cc2[nH]1 | 11 |  |  |  |  |  |  |  |  |  | 
9 | c1ccc(CNCCOc2cccc3[nH]cnc23)cc1 | 13 |  |  |  |  |  |  |  |  |  | 
10 | O=c1[nH]c2cccc(OCCNCc3ccccc3)c2[nH]1 |  |  | 0.18 nM | 6.3 nM | 4.7 nM |  |  |  |  |  | 
11 | O=C1Cc2c(cccc2OCCNCc2ccccc2)N1 | 54 |  |  | 10 nM |  | 4.25 nM | 2.8 nM |  |  |  | 
12 | FC(F)(F)c1nc2c(OCCNCc3ccccc3)cccc2[nH]1 | 10 | 0.007 mg/kg | 0.18 nM | 3.1 nM | 1.9 nM | 1.75 nM | 1.15 nM |  |  | 0.09 mg/kg | 0.33 mg/kg
13 | Sc1nc2c(OCCNCc3ccccc3)cc(Cl)cc2[nH]1 | 21 |  | 0.21 nM | 11.2 nM | 4.5 nM | 6.5 nM | 12.2 nM |  |  |  | 
14 | S=c1[nH]c2cccc(OCCNCc3ccccc3)c2[nH]1 |  |  | 0.18 nM | 3.8 nM | 2.6 nM | 3 nM | 2 nM |  |  |  | 
15 | Cc1nc2c(OCCNCc3ccccc3)cccc2[nH]1 | 6 |  | 4.4 nM | 61.1 nM | 26.6 nM | 15.2 nM | 94.6 nM |  |  |  | 
